Measured values: patent US10681909B2, “Herbicidal triazoles” (FMC Corporation, priority 2014, dated 2020)

Tested on: rice
Assay: Test C flooded paddy test
Assay type: in vivo, Oryza sativa
Conditions: Flood, applied to paddy water, rating after 13 to 15 d
Summary of the method: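 Pots were flooded to 3 cm above the soil at treatment, and compounds were applied directly into the paddy water. That depth was held throughout. After 13 to 15 d in a greenhouse, plants were rated visually against untreated controls.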

Measured: Rice plant response rating (0 to 100)

Cn1nc(-c2ccc(F)cc2)nc1Oc1cccc(C(F)(F)F)c1 [Compound 5, 3-(4-fluorophenyl)-1-methyl-5-[3-(trifluoromethyl)phenoxy]-1H-1,2,4-triazole]
0: 31 g ai/ha | 62 g ai/ha | 125 g ai/ha | 250 g ai/ha
